The values that follow come from ChEMBL document CHEMBL5113513, “Selective Inhibitors of Medium-Size S1' Pocket Matrix Metalloproteinases: A Stepping Stone of Future Drug Discovery” (J Med Chem, 2022).

pIC50, pKi: −log10 of the molar value.

One data set deals with T1, Interstitial collagenase (Homo sapiens, UniProt P03956).
T1 sequence (P03956 whole entry): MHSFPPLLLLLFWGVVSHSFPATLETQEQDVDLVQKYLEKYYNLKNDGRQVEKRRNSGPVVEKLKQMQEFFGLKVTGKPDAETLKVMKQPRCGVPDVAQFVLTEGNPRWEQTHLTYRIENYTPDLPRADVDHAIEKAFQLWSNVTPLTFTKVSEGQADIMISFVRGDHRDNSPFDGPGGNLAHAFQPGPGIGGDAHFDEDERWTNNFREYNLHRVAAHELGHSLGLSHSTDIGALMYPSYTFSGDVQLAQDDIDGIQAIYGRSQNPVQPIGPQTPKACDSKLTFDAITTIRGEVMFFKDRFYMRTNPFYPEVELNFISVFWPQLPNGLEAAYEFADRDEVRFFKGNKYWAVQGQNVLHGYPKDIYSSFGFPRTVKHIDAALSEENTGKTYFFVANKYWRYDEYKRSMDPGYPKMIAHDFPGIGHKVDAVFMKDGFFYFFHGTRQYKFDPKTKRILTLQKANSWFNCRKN
The data set is described as follows: Inhibition of MMP-1 (unknown origin) using 7-(methoxycoumarin-4yl)acetyl-Pro-Leu-Gly-Leu-(N-3-[2,4-dinitrophenyl]- L-2,3-diamino-propionyl)-Ala-Arg-NH2 as fluorogenic substrate for 45 mins by fluorogenic analysis.

In data set [1] the target is 72 kDa type IV collagenase (Homo sapiens, UniProt P08253). Description: Inhibition of recombinant human MMP-2 using peptide substrate by ELISA. On the technique in general: In an ELISA, binding on a coated surface is turned into a signal by an enzyme label.
72 kDa type IV collagenase, sequence (P08253 whole entry): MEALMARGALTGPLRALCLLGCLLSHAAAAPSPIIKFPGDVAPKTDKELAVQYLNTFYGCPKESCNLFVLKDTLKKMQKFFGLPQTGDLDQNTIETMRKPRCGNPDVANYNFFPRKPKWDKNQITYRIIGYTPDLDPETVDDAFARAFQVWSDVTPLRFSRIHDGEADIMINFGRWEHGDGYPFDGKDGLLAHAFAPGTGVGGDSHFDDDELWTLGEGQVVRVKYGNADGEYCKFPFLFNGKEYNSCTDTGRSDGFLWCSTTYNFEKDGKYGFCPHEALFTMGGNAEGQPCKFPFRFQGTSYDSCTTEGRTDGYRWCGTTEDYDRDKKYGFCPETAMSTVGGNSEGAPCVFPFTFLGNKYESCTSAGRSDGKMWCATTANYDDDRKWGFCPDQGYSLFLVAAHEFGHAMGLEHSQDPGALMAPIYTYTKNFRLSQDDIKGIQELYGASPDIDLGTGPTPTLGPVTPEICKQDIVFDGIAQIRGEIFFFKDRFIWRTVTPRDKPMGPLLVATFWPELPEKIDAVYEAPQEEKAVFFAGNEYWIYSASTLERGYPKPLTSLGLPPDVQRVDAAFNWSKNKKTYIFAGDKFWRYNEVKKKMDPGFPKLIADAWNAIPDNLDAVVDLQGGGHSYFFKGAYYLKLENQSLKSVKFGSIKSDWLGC
Data set [2] is described as follows: AUC in Sprague-Dawley rats at 33 mg/kg, po. It counts as ADME, organism-based. Also noted: dose 33 mg/kg, route po. Conditions: rat, in vivo.
Data set [3] can be described thus: Half life in Sprague-Dawley rat at 33 mg/kg, po. The class given is ADME, organism-based. Conditions: in vivo.
Data set [4] in a line: Half life in Sprague-Dawley rats at 33 mg/kg, sc. Conditions: rat, in vivo. The class given is ADME, organism-based.
Data set [5] is described as follows: Inhibition of recombinant human TACE using peptide substrate by ELISA.
In the next data set the target is Collagenase 3 (Homo sapiens, UniProt P45452). Description: Inhibition of recombinant human MMP-13 using peptide substrate by ELISA.
Data set [6] can be described thus: AUC in Sprague-Dawley rats at 33 mg/kg, sc. It counts as ADME, organism-based. More on the design: dose 33 mg/kg, route sc. Conditions: rat, in vivo.
The target of data set [7] is T2, Matrix metalloproteinase-9 (Homo sapiens, UniProt P14780). Description: Inhibition of recombinant human MMP-9 using peptide substrate by ELISA.
T2 sequence (P14780 whole entry): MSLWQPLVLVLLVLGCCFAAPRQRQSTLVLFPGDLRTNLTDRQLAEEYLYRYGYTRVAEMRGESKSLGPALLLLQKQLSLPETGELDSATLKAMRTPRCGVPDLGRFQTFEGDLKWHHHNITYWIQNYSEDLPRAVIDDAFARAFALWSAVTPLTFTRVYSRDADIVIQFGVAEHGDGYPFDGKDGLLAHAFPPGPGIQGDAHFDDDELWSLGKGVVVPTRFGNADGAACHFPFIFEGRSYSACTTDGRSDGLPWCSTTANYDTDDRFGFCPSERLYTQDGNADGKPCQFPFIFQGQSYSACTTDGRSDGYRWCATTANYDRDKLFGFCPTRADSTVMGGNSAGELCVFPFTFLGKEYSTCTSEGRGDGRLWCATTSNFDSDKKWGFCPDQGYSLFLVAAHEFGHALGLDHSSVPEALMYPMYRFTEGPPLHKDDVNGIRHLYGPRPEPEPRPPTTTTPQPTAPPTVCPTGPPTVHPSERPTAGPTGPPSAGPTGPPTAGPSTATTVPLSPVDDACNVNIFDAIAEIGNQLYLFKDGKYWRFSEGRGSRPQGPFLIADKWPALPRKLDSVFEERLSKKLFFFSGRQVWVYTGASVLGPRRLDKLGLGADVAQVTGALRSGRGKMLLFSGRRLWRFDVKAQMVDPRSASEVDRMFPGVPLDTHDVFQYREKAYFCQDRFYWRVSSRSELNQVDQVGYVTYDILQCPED
The target of data set [8] is Macrophage metalloelastase (Homo sapiens, UniProt P39900). Description: Inhibition of recombinant human MMP-12 using peptide substrate by ELISA.
Macrophage metalloelastase, sequence (P39900 whole entry): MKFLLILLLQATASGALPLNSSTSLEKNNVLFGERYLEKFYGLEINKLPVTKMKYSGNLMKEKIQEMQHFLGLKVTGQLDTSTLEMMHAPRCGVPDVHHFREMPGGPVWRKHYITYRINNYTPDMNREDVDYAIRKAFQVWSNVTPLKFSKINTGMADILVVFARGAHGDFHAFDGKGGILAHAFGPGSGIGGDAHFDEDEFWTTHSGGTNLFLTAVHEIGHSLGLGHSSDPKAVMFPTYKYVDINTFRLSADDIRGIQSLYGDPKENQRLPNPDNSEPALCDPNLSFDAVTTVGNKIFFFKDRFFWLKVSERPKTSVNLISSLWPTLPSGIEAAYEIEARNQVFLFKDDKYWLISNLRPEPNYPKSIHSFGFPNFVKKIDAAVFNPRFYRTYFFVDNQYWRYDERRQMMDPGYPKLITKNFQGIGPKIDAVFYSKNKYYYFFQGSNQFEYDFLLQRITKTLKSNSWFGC
The nature of data set [9]: Clearance in Sprague-Dawley rats at 33 mg/kg, sc. To be noted: rat, in vivo. It counts as ADME, organism-based.
Data set [10] has as its target T2, Matrix metalloproteinase-9. Description: Inhibition of MMP-9 (unknown origin) using Mca-Pro-Leu-Gly-Leu-Dpa-Ala-Arg-NH2 as substrate preincubated for 30 mins followed by substrate addition for 2 to 4 hrs by fluorimetric assay.
A further data set deals with Neutrophil collagenase (Homo sapiens, UniProt P22894). Description: Inhibition of MMP-8 (unknown origin) using Mca-Pro-Leu-Gly-Leu-Dpa-Ala-Arg-NH2 as substrate preincubated for 30 mins followed by substrate addition for 2 to 4 hrs by fluorimetric assay.
Neutrophil collagenase, sequence (P22894 whole entry): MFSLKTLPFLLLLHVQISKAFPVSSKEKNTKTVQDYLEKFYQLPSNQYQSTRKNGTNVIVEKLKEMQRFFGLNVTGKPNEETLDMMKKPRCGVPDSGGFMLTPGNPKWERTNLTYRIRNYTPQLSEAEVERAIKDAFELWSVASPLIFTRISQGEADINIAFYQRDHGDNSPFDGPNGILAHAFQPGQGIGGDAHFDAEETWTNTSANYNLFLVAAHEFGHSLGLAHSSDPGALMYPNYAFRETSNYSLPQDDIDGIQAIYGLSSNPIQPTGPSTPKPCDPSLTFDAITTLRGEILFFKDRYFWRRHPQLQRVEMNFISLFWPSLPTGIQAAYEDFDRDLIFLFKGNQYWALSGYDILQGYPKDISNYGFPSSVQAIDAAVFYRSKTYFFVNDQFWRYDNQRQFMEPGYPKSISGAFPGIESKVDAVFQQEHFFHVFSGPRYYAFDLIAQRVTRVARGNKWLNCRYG
The target of data set [11] is Matrix metalloproteinase-14 (Homo sapiens, UniProt P50281). Description: Inhibition of MMP-14 (unknown origin) using Mca-Pro-Leu-Gly-Leu-Dpa-Ala-Arg-NH2 as substrate preincubated for 30 mins followed by substrate addition for 2 to 4 hrs by fluorimetric assay.
The nature of data set [12]: Metabolic stability in cynomolgus monkey assessed as clearance at 3 mg/kg, iv. Conditions: in vivo. It counts as ADME, organism-based, Macaca fascicularis.
The next data set has as its system B16-F10. Description: Antitumor activity in mouse B16-F10 xenografted C57BL mouse lung metastasis model assessed as increase in life span measured per hour at 100 mg/kg, ip bid. It counts as functional.
Data set [13] can be described thus: Oral bioavailability in cynomolgus monkey at 3 mg/kg. It counts as ADME, organism-based, Macaca fascicularis. Conditions: in vivo.
A short description of data set [14]: Plasma concentration in cynomolgus monkey at 3 mg/kg, iv measured upto 3 hrs. The class given is ADME, organism-based, Macaca fascicularis.
Data set [15] in a line: Oral bioavailability in rat at 3 mg/kg. The class given is ADME, organism-based. To be noted: in vivo.
Data set [16] in a line: Plasma concentration in dog at 3 mg/kg, iv measured upto 3 hrs. It counts as ADME, organism-based, Canis lupus familiaris.
Data set [17] is described as follows: Metabolic stability in rat assessed as clearance at 3 mg/kg, iv. To be noted: in vivo. It counts as ADME, organism-based.
The nature of data set [18]: Oral bioavailability in dog at 3 mg/kg. The class given is ADME, organism-based, Canis lupus familiaris. Conditions: in vivo.
Data set [19] is described as follows: Plasma concentration in rat at 3 mg/kg, iv measured upto 3 hrs. It counts as ADME, organism-based.
Data set [20] can be described thus: Half life in rat at 3 mg/kg, iv. Conditions: in vivo. It counts as ADME, organism-based.
Data set [21] in a line: Metabolic stability in dog assessed as clearance at 3 mg/kg, iv. The class given is ADME, organism-based, Canis lupus familiaris. Conditions: in vivo.
Data set [22] is described as follows: Half life in cynomolgus monkey at 3 mg/kg, iv. The class given is ADME, organism-based, Macaca fascicularis. To be noted: in vivo.
The subject of a further data set is HT-1080. Description: Inhibition of cell invasion in human HT-1080 cells for 24 hrs by Calcein AM staining based fluorometric analysis. The class given is functional. To be noted: HT-1080, 24 h.

For orientation: pKi means the Ki on a negative log10 scale, so that one unit is a factor of ten. Turning to `C=C[C@@H]1OC(Cc2ccccc2)=N[C@H]1CO`, at Interstitial collagenase, the pKi was below 3.30.
One may read the pIC50 as the IC50 on a negative log10 scale, so that one unit is a factor of ten. Usually AUC stands for the area under the concentration-time curve, a measure of exposure. As usually defined, the half-life is the time needed for the level to fall by half in the phase considered. As to `O=C(NCCCCCNS(=O)(=O)c1ccc(Oc2ccccc2)cc1)P(=O)(O)O`, the pIC50 is 8.40 in data set [1]; below 7.00 in data set [5]; below 7.22 at Collagenase 3; below 7.00 in data set [7]; below 7.10 in data set [8]. Also, the AUC in [2] came to 6800 ng·h/mL; in data set [6] it was 78000 ng·h/mL. Also, the half-life is 630 min in data set [3] and 558 min in data set [4].
Broadly, the CL/F is clearance divided by bioavailability, as obtained after extravascular dosing. In the case of `O=C(NCCCCCCNS(=O)(=O)c1ccc(Oc2ccccc2)cc1)P(=O)(O)O`, the pIC50 in [1] is 8.40; in data set [5], 7.70; on Collagenase 3, below 7.00; in data set [7], below 7.00; in data set [8], below 7.00. For the same compound, the AUC in [2] was determined as 3300 ng·h/mL; in data set [6], 50500 ng·h/mL. Also, the results for the half-life in [3] and in data set [4] were 348 min and 396 min, respectively. The same compound had a CL/F in data set [9] of 7.1 mL/min/kg.
Regarding `O=P(O)(O)C(NS(=O)(=O)c1ccc(-c2ccc(Cl)cc2)cc1)P(=O)(O)O`, the pIC50 in [10] was below 6.00; on Neutrophil collagenase it was 6.49; in data set [11] it was below 6.00.
In general, clearance refers to the volume of plasma or blood freed of the substance per unit of time. Broadly, the bioavailability is the share of a dose that reaches the circulation, judged against a reference dose that is usually intravenous. On to `CC1(C)NC(=O)N(C[C@@H](COc2ccc(-c3ccc(OC(F)(F)F)cc3)cc2)N(O)C=O)C1=O`, for which the clearance in [12] is 1.13 mL/min/kg; in data set [17], 2 mL/min/kg; in [21], 1.83 mL/min/kg. In the data set with B16-F10, the Activity is 46%. Also, the bioavailability in data set [13], in data set [15] and in data set [18] was 84% each time. Also, the concentration at 3 h in data set [14], in [16] and in data set [19] was 1500 ng/mL in each case. Moreover, the half-life in [20] is 480 min; in [22] it was 1260 min.
In the case of `COc1ccccc1Nc1nc(-c2sc(NC(C)=O)nc2C)cs1`, in the data set on HT-1080, the pIC50 was 6.00.
